The target in assay [1] is Human immunodeficiency virus type 1 integrase (Human immunodeficiency virus 1) (UniProt Q7ZJM1). Nature of the assay: Binding affinity to HIV-1 integrase measured after overnight incubation by chemiluminescence analysis relative to IN 174-188. Also noted: concentration or dose not given beside the values.
In assay [2] the test system is Human immunodeficiency virus 1. Nature of the assay: Binding affinity to HLT-tagged HIV-1 Rev measured after overnight incubation by chemiluminescence analysis relative to IN 174-188. Also noted: concentration or dose not given beside the values.

Peptide text beside a SMILES is read from it.

Human immunodeficiency virus type 1 integrase (Human immunodeficiency virus 1), sequence (Q7ZJM1 as listed by the source): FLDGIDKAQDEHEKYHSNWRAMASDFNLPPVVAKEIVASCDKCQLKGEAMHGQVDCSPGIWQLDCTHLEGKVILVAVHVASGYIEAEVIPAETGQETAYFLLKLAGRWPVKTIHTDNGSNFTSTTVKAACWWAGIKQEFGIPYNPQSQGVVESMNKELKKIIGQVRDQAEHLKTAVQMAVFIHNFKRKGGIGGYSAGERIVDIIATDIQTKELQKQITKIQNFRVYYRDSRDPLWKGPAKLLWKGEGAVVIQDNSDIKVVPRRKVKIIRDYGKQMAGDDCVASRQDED

Take `CC[C@H](C)[C@H](NC(=O)[C@H](Cc1ccccc1)NC(=O)[C@@H](NC(=O)[C@H](C)NC(=O)[C@@H](N)CCSC)C(C)C)C(=O)N[C@@H](Cc1cnc[nH]1)C(=O)N[C@@H](CC(N)=O)C(=O)N[C@@H](Cc1ccccc1)C(=O)N[C@@H](CCCCN)C(=O)N[C@@H](CCCNC(=N)N)C(=O)N[C@@H](CCCCN)C(=O)O` (H-MAVFIHNFKRK-OH): the Activity in assay [1] stood at 106%; in assay [2], 88%.
As to `CC[C@H](C)[C@H](NC(=O)[C@H](Cc1ccccc1)NC(=O)[C@@H](NC(=O)[C@H](C)NC(=O)[C@H](CCSC)NC(=O)[C@@H](N)CCC(N)=O)C(C)C)C(=O)N[C@@H](Cc1cnc[nH]1)C(=O)N[C@@H](CC(N)=O)C(=O)N[C@@H](Cc1ccccc1)C(=O)N[C@@H](CCCCN)C(=O)N[C@@H](CCCNC(=N)N)C(=O)N[C@@H](CCCCN)C(=O)O` (H-QMAVFIHNFKRK-OH), the Activity was 122% in assay [1] and 135% in assay [2].
Consider `CC[C@H](C)[C@H](NC(=O)[C@H](Cc1ccccc1)NC(=O)[C@@H](NC(=O)[C@H](C)NC(=O)[C@H](CCSC)NC(=O)[C@H](CCC(N)=O)NC(=O)[C@H](C)NC(=O)[C@H](C)NC(=O)[C@@H](N)[C@@H](C)O)C(C)C)C(=O)N[C@@H](Cc1cnc[nH]1)C(=O)N[C@@H](CC(N)=O)C(=O)N[C@@H](Cc1ccccc1)C(=O)N[C@@H](CCCCN)C(=O)N[C@@H](CCCNC(=N)N)C(=O)N[C@@H](CCCCN)C(=O)O` (H-TAAQMAVFIHNFKRK-OH), for which the figures for the Activity in assay [1] and in assay [2] were 115% and 106%, respectively.
On the same counts, the results for `CC[C@H](C)[C@H](NC(=O)[C@H](Cc1ccccc1)NC(=O)[C@@H](NC(=O)[C@H](C)NC(=O)[C@H](CCSC)NC(=O)[C@H](C)NC(=O)[C@@H](NC(=O)[C@H](C)NC(=O)[C@@H](N)[C@@H](C)O)C(C)C)C(C)C)C(=O)N[C@@H](Cc1cnc[nH]1)C(=O)N[C@@H](CC(N)=O)C(=O)N[C@@H](Cc1ccccc1)C(=O)N[C@@H](CCCCN)C(=O)N[C@@H](CCCNC(=N)N)C(=O)N[C@@H](CCCCN)C(=O)O` (H-TAVAMAVFIHNFKRK-OH) are 83% and 79%.
For `CC[C@H](C)[C@H](NC(=O)[C@H](Cc1ccccc1)NC(=O)[C@@H](NC(=O)[C@H](C)NC(=O)[C@H](C)NC(=O)[C@H](CCC(N)=O)NC(=O)[C@@H](NC(=O)[C@H](C)NC(=O)[C@@H](N)[C@@H](C)O)C(C)C)C(C)C)C(=O)N[C@@H](Cc1cnc[nH]1)C(=O)N[C@@H](CC(N)=O)C(=O)N[C@@H](Cc1ccccc1)C(=O)N[C@@H](CCCCN)C(=O)N[C@@H](CCCNC(=N)N)C(=O)N[C@@H](CCCCN)C(=O)O` (H-TAVQAAVFIHNFKRK-OH), in that order: 113% and 172%.
On the same counts, the results for `CC[C@H](C)[C@H](NC(=O)[C@H](Cc1ccccc1)NC(=O)[C@H](C)NC(=O)[C@H](C)NC(=O)[C@H](CCSC)NC(=O)[C@H](CCC(N)=O)NC(=O)[C@@H](NC(=O)[C@H](C)NC(=O)[C@@H](N)[C@@H](C)O)C(C)C)C(=O)N[C@@H](Cc1cnc[nH]1)C(=O)N[C@@H](CC(N)=O)C(=O)N[C@@H](Cc1ccccc1)C(=O)N[C@@H](CCCCN)C(=O)N[C@@H](CCCNC(=N)N)C(=O)N[C@@H](CCCCN)C(=O)O` (H-TAVQMAAFIHNFKRK-OH) are 123% and 222%.
With `CC[C@H](C)[C@H](NC(=O)[C@H](C)NC(=O)[C@@H](NC(=O)[C@H](C)NC(=O)[C@H](CCSC)NC(=O)[C@H](CCC(N)=O)NC(=O)[C@@H](NC(=O)[C@H](C)NC(=O)[C@@H](N)[C@@H](C)O)C(C)C)C(C)C)C(=O)N[C@@H](Cc1cnc[nH]1)C(=O)N[C@@H](CC(N)=O)C(=O)N[C@@H](Cc1ccccc1)C(=O)N[C@@H](CCCCN)C(=O)N[C@@H](CCCNC(=N)N)C(=O)N[C@@H](CCCCN)C(=O)O` (H-TAVQMAVAIHNFKRK-OH), the Activity in assay [1] was 104%; in assay [2], 216%.
On the same counts, the results for `CSCC[C@H](NC(=O)[C@H](CCC(N)=O)NC(=O)[C@@H](NC(=O)[C@H](C)NC(=O)[C@@H](N)[C@@H](C)O)C(C)C)C(=O)N[C@@H](C)C(=O)N[C@H](C(=O)N[C@@H](Cc1ccccc1)C(=O)O)C(C)C` (H-TAVQMAVF-OH) are 0% and 0%.
On the same counts, the results for `CSCC[C@H](NC(=O)[C@H](CCC(N)=O)NC(=O)[C@@H](NC(=O)[C@H](C)NC(=O)[C@@H](N)[C@@H](C)O)C(C)C)C(=O)N[C@@H](C)C(=O)N[C@H](C(=O)N[C@@H](Cc1ccccc1)C(=O)N[C@@H](C)C(=O)N[C@@H](Cc1cnc[nH]1)C(=O)N[C@@H](CC(N)=O)C(=O)N[C@@H](Cc1ccccc1)C(=O)N[C@@H](CCCCN)C(=O)N[C@@H](CCCNC(=N)N)C(=O)N[C@@H](CCCCN)C(=O)O)C(C)C` (H-TAVQMAVFAHNFKRK-OH) are 156% and 254%.
With `CC[C@H](C)[C@H](NC(=O)[C@H](Cc1ccccc1)NC(=O)[C@@H](NC(=O)[C@H](C)NC(=O)[C@H](CCSC)NC(=O)[C@H](CCC(N)=O)NC(=O)[C@@H](NC(=O)[C@H](C)NC(=O)[C@@H](N)[C@@H](C)O)C(C)C)C(C)C)C(=O)O` (H-TAVQMAVFI-OH), the Activity in assay [1] and in assay [2] was 0% each time.
Take `CC[C@H](C)[C@H](NC(=O)[C@H](Cc1ccccc1)NC(=O)[C@@H](NC(=O)[C@H](C)NC(=O)[C@H](CCSC)NC(=O)[C@H](CCC(N)=O)NC(=O)[C@@H](NC(=O)[C@H](C)NC(=O)[C@@H](N)[C@@H](C)O)C(C)C)C(C)C)C(=O)N[C@@H](C)C(=O)N[C@@H](CC(N)=O)C(=O)N[C@@H](Cc1ccccc1)C(=O)N[C@@H](CCCCN)C(=O)N[C@@H](CCCNC(=N)N)C(=O)N[C@@H](CCCCN)C(=O)O` (H-TAVQMAVFIANFKRK-OH): the values for the Activity in assay [1] and in assay [2] were 122% and 121%, respectively.
As for `CC[C@H](C)[C@H](NC(=O)[C@H](Cc1ccccc1)NC(=O)[C@@H](NC(=O)[C@H](C)NC(=O)[C@H](CCSC)NC(=O)[C@H](CCC(N)=O)NC(=O)[C@@H](NC(=O)[C@H](C)NC(=O)[C@@H](N)[C@@H](C)O)C(C)C)C(C)C)C(=O)N[C@@H](Cc1cnc[nH]1)C(=O)O` (H-TAVQMAVFIH-OH), the Activity in assay [1] and in assay [2] was 0% throughout.
As for `CC[C@H](C)[C@H](NC(=O)[C@H](Cc1ccccc1)NC(=O)[C@@H](NC(=O)[C@H](C)NC(=O)[C@H](CCSC)NC(=O)[C@H](CCC(N)=O)NC(=O)[C@@H](NC(=O)[C@H](C)NC(=O)[C@@H](N)[C@@H](C)O)C(C)C)C(C)C)C(=O)N[C@@H](Cc1cnc[nH]1)C(=O)N[C@@H](C)C(=O)N[C@@H](Cc1ccccc1)C(=O)N[C@@H](CCCCN)C(=O)N[C@@H](CCCNC(=N)N)C(=O)N[C@@H](CCCCN)C(=O)O` (H-TAVQMAVFIHAFKRK-OH), the figures for the Activity in assay [1] and in assay [2] were 33% and 105%, respectively.
On the same counts, the results for `CC[C@H](C)[C@H](NC(=O)[C@H](Cc1ccccc1)NC(=O)[C@@H](NC(=O)[C@H](C)NC(=O)[C@H](CCSC)NC(=O)[C@H](CCC(N)=O)NC(=O)[C@@H](NC(=O)[C@H](C)NC(=O)[C@@H](N)[C@@H](C)O)C(C)C)C(C)C)C(=O)N[C@@H](Cc1cnc[nH]1)C(=O)N[C@@H](CC(N)=O)C(=O)O` (H-TAVQMAVFIHN-OH) are 0% and 0%.
For `CC[C@H](C)[C@H](NC(=O)[C@H](Cc1ccccc1)NC(=O)[C@@H](NC(=O)[C@H](C)NC(=O)[C@H](CCSC)NC(=O)[C@H](CCC(N)=O)NC(=O)[C@@H](NC(=O)[C@H](C)NC(=O)[C@@H](N)[C@@H](C)O)C(C)C)C(C)C)C(=O)N[C@@H](Cc1cnc[nH]1)C(=O)N[C@@H](CC(N)=O)C(=O)N[C@@H](C)C(=O)N[C@@H](CCCCN)C(=O)N[C@@H](CCCNC(=N)N)C(=O)N[C@@H](CCCCN)C(=O)O` (H-TAVQMAVFIHNAKRK-OH), in that order: 134% and 193%.
With `CC[C@H](C)[C@H](NC(=O)[C@H](Cc1ccccc1)NC(=O)[C@@H](NC(=O)[C@H](C)NC(=O)[C@H](CCSC)NC(=O)[C@H](CCC(N)=O)NC(=O)[C@@H](NC(=O)[C@H](C)NC(=O)[C@@H](N)[C@@H](C)O)C(C)C)C(C)C)C(=O)N[C@@H](Cc1cnc[nH]1)C(=O)N[C@@H](CC(N)=O)C(=O)N[C@@H](Cc1ccccc1)C(=O)O` (H-TAVQMAVFIHNF-OH), the Activity in assay [1] and in assay [2] was 0% throughout.
Take `CC[C@H](C)[C@H](NC(=O)[C@H](Cc1ccccc1)NC(=O)[C@@H](NC(=O)[C@H](C)NC(=O)[C@H](CCSC)NC(=O)[C@H](CCC(N)=O)NC(=O)[C@@H](NC(=O)[C@H](C)NC(=O)[C@@H](N)[C@@H](C)O)C(C)C)C(C)C)C(=O)N[C@@H](Cc1cnc[nH]1)C(=O)N[C@@H](CC(N)=O)C(=O)N[C@@H](Cc1ccccc1)C(=O)N[C@@H](C)C(=O)N[C@@H](CCCNC(=N)N)C(=O)N[C@@H](CCCCN)C(=O)O` (H-TAVQMAVFIHNFARK-OH): the Activity in assay [1] stood at 91%; in assay [2], 176%.
For `CC[C@H](C)[C@H](NC(=O)[C@H](Cc1ccccc1)NC(=O)[C@@H](NC(=O)[C@H](C)NC(=O)[C@H](CCSC)NC(=O)[C@H](CCC(N)=O)NC(=O)[C@@H](NC(=O)[C@H](C)NC(=O)[C@@H](N)[C@@H](C)O)C(C)C)C(C)C)C(=O)N[C@@H](Cc1cnc[nH]1)C(=O)N[C@@H](CC(N)=O)C(=O)N[C@@H](Cc1ccccc1)C(=O)N[C@@H](CCCCN)C(=O)O` (H-TAVQMAVFIHNFK-OH), in that order: 120% and 127%.
For `CC[C@H](C)[C@H](NC(=O)[C@H](Cc1ccccc1)NC(=O)[C@@H](NC(=O)[C@H](C)NC(=O)[C@H](CCSC)NC(=O)[C@H](CCC(N)=O)NC(=O)[C@@H](NC(=O)[C@H](C)NC(=O)[C@@H](N)[C@@H](C)O)C(C)C)C(C)C)C(=O)N[C@@H](Cc1cnc[nH]1)C(=O)N[C@@H](CC(N)=O)C(=O)N[C@@H](Cc1ccccc1)C(=O)N[C@@H](CCCCN)C(=O)N[C@@H](C)C(=O)N[C@@H](CCCCN)C(=O)O` (H-TAVQMAVFIHNFKAK-OH), in that order: 127% and 234%.
`CC[C@H](C)[C@H](NC(=O)[C@H](Cc1ccccc1)NC(=O)[C@@H](NC(=O)[C@H](C)NC(=O)[C@H](CCSC)NC(=O)[C@H](CCC(N)=O)NC(=O)[C@@H](NC(=O)[C@H](C)NC(=O)[C@@H](N)[C@@H](C)O)C(C)C)C(C)C)C(=O)N[C@@H](Cc1cnc[nH]1)C(=O)N[C@@H](CC(N)=O)C(=O)N[C@@H](Cc1ccccc1)C(=O)N[C@@H](CCCCN)C(=O)N[C@@H](CCCNC(=N)N)C(=O)O` (H-TAVQMAVFIHNFKR-OH): the values for the Activity in assay [1] and in assay [2] were 87% and 114%, respectively.

These data come from ChEMBL document CHEMBL3217454, “Structureactivity relationship studies using peptide arrays: the example of HIV-1 Revintegrase interaction” (Medchemcomm, 2013).
